This is an account of results in patent US20260234268A1, “ANTI-ASGR1 MONOCLONAL ANTIBODY AND USE THEREOF” (CHOLESGEN (SHANGHAI) CO., LTD., priority 2022, published 2026).

For series [1], the system named is mice fed a high-fat, high-cholesterol, and cholate (HF/HC/BS) diet. The series is described as follows: 4B9 and Ezetimibe, alone or combined, in mice fed HF/HC/BS diet (Example 3, FIG. 4). The series is classed as in vivo, mouse. Conditions: sacrificed on day 7, 4B9 10 mg/kg i.p. every other day. The protocol:
All data are presented as mean±SEM.
We then devised an experiment as in FIG. 4 to verify the hypothesis. Mice were randomly divided into 8 groups according to the genotype (n=6) and fed an HF/HC/BS diet. They were intragastrically administered with EZ at 10 mg/kg per day and were intraperitoneally injected with 4B9 at 10 mg/kg every other day. The mice were sacrificed on day 7 to collect their tissues.

The conditions of series [2]: Ezetimibe used alone, clinical; cited from earlier work.
Series [3] deals with mice fed a high-fat, high-cholesterol, and cholate (HF/HC/BS) diet. The series can be described thus: 4B9 and atorvastatin, alone or combined, in mice fed HF/HC/BS diet, 14 days (Example 2, FIG. 3). Particulars: 4B9 10 mg/kg/day i.p. every other day.
Procedure: 8-week-old Asgr1 knockout mice and wild-type littermates are randomly divided into 8 groups as shown in the figure according to the genotype, with 6 mice per group. The mice are given free access to water and fed a high-fat, high-cholesterol, and cholate (HF/HC/BS) diet (60% fat, 1.25% cholesterol, and 0.5% cholate). […] After 14 days, the mice are fasted for 4 hours before being sacrificed. All data are presented as mean±SEM. Statistical significance is calculated using an unpaired two-tailed Student's t-test. *p<0.05, **p<0.01, ***p<0.001. (a) Western blotting analysis of liver samples; (b) total cholesterol in serum; (c) triglyceride in serum; (d) total cholesterol in liver; (e) triglyceride in liver; (f) concentration of cholesterol in bile; (g) total cholesterol in bile; (h) concentration of bile acid in bile; (i) total bile acid in bile; (j) total cholesterol in feces; (k) body weight; (l) daily food intake; (m) ratio of liver weight to body weight; (n) blood glucose; (o) alanine transaminase in serum; (p) aspartate transaminase in serum; (q-r) real-time quantitative PCR analysis of genes related to cholesterol efflux, cholesterol synthesis and absorption, lipid synthesis, and bile acid synthesis in the liver of mice, and genes in other pathways, with cyclophilin as an internal reference; (s) hematoxylin-eosin staining of liver sections; (t) oil red O staining of liver sections.
In the experiment, wild-type littermates were used as a control. All mice were housed in an SPF (specific pathogen-free) facility and kept on a 12-hour light/12-hour dark cycle. 8-week-old male or female mice were fed a high-fat, high-cholesterol, and cholate diet (Research Diets, D12109C) as required by the experimental protocols. For treatments involving antibody neutralization or the combination of antibodies with statins or Ezetimibe, the mice were intraperitoneally injected with antibodies or intragastrically administered with drugs at specified doses. All animals were fasted for 4 hours before being sacrificed.
The collected cells or tissues were lysed in RIPA lysis buffer supplemented with protease and phosphatase inhibitors. The RIPA lysis buffer contained 50 mM Tris-HCl (pH=8.0), 150 mM NaCl, 2 mM MgCl2, 1.5% NP-40, 0.1% SDS, and 0.5% sodium deoxycholate. The protease inhibitor contained 10 μM MG-132, 10 μg/mL leupeptin, 1 mM PMSF, 5 μg/mL pepstatin, 25 μg/mL ALLN, and 1 mM DTT. The protein concentration of the lysate was determined using a BCA method (Thermo Fisher Scientific). The protein samples were incubated with membrane solubilization buffer (62.5 mM Tris-HCl (pH=6.8), 15% SDS, 8 M urea, 10% glycerol, and 100 mM DTT) and 4× loading buffer (150 mM Tris-HCl (pH=6.8), 12% SDS, 30% glycerol, 6% β-mercaptoethanol, and 0.02% bromophenol blue) at 37° C. for 30 minutes. The protein samples were separated by SDS-PAGE and transferred to a PVDF membrane, which was blocked in TBST, i.e., TBS containing 0.075% Tween 20 and 5% skim milk (3% BSA for phosphorylation experiments) for 1 hour. The membrane was incubated overnight at 4° C. with a specified primary antibody, and washed three times with TBST. Finally, Pierce ECL Plus Western blotting substrate (Thermo Fisher Scientific) was used for detection.
Blood was collected from the orbital sinus to obtain serum for the measurement of total cholesterol and triglyceride.
[4] abbreviates: EZ 10 mg/kg per day intragastric (FIGS. 4a, 4p-q).

In the case of `O=C1[C@H](CC[C@H](O)c2ccc(F)cc2)[C@@H](c2ccc(O)cc2)N1c1ccc(F)cc1` [Ezetimibe, reference compound], in series [1] (8 groups of mice, EZ 10 mg/kg per day intragastric (FIG. 4j)), the body weight result is “No significant differences”. Further, the daily food intake result in series [1] (8 groups of mice, EZ 10 mg/kg per day intragastric (FIG. 4k)) is on record as “No significant differences”. Moreover, the “ratio of liver weight to body weight” value in series [1] (8 groups of mice, EZ 10 mg/kg per day intragastric (FIG. 4l)) is listed as “No significant differences”. In addition, in series [1] (8 groups of mice, EZ 10 mg/kg per day intragastric (FIG. 4m)), the blood glucose entry is recorded as “No significant differences”. Further, the ALT result in series [1] (8 groups of mice, EZ 10 mg/kg per day intragastric (FIG. 4n)) is on record as “No significant differences”. Besides, the AST result in series [1] (8 groups of mice, EZ 10 mg/kg per day intragastric (FIG. 4o)) is “No significant differences”. In series [1] (EZ 10 mg/kg per day intragastric (FIG. 4b)), the “total cholesterol in serum” value was “effectively reduce”. In addition, the triglyceride in serum entry in series [1] (EZ 10 mg/kg per day intragastric (FIG. 4c)) was “effectively reduce”. Further, in series [1] (EZ 10 mg/kg per day intragastric (FIG. 4e)), the triglyceride in liver result was “effectively reduce”. Further, in series [1] (EZ 10 mg/kg per day intragastric (FIG. 4g)), the “total amount of total cholesterol in bile” value was “significantly inhibited”. For the same compound, the “total amount of total bile acid in bile” value in series [1] (EZ 10 mg/kg per day intragastric (FIG. 4i)) is reported as “significantly inhibited”. The “total cholesterol in liver” value in series [1] (EZ 10 mg/kg per day intragastric (FIG. 4d)) was “effectively reduce”. Besides, in series [1] (setting [4]), the “cholesterol efflux-related genes and their proteins (LXRs, ABCG8, ABCA1, CYP7A1) in liver” value is “significant decrease”; the “lipid synthesis-related genes and their proteins (SREBP1, FASN) in liver” value was “significant decrease”. In addition, the “reduction of the plasma concentration of LDL-c” value in series [2] was “about 20%”.

As to `CC(C)c1c(C(=O)Nc2ccccc2)c(-c2ccccc2)c(-c2ccc(F)cc2)n1CC[C@@H](O)C[C@@H](O)CC(=O)O` [atorvastatin], in series [3] (atorvastatin 30 mg/kg/day intragastric daily (FIG. 3b)), the “total cholesterol in serum” value is reported as “effectively reduce”. The triglyceride in serum entry in series [3] (atorvastatin 30 mg/kg/day intragastric daily (FIG. 3c)) is listed as “effectively reduce”. In addition, the triglyceride in liver entry in series [3] (atorvastatin 30 mg/kg/day intragastric daily (FIG. 3e)) was “effectively reduce”. Further, in series [3] (atorvastatin 30 mg/kg/day intragastric daily (FIG. 3g)), the “total amount of total cholesterol in bile” value was “almost no effect”. In series [3] (atorvastatin 30 mg/kg/day intragastric daily (FIG. 3j)), the “total cholesterol in feces” value is given as “no effect”. The “total cholesterol in liver” value in series [3] (atorvastatin 30 mg/kg/day intragastric daily (FIG. 3d)) is “effectively reduce”. The body weight result in series [3] (8 groups of mice, atorvastatin 30 mg/kg/day intragastric daily (FIG. 3k)) was “No significant differences”. Also, the daily food intake entry in series [3] (8 groups of mice, atorvastatin 30 mg/kg/day intragastric daily (FIG. 3l)) is listed as “No significant differences”. Further, in series [3] (8 groups of mice, atorvastatin 30 mg/kg/day intragastric daily (FIG. 3n)), the blood glucose result is given as “No significant differences”. In addition, in series [3] (8 groups of mice, atorvastatin 30 mg/kg/day intragastric daily (FIG. 3o)), the ALT entry is given as “No significant differences”. Moreover, in series [3] (8 groups of mice, atorvastatin 30 mg/kg/day intragastric daily (FIG. 3p)), the AST entry is listed as “No significant differences”.
